# From patent US20200383985A1, “Inhibitors of Protease Activated Receptor-2” (Endosome Therapeutics, Inc., priority 2017, published 2020)
# Like-named read-outs stand apart in the source and are kept apart here.
# Key:
# [1] = test system: mouse DRG neurons; experiment: Patch clamp rheobase of DRG neurons: protease-induced hyperexcitability of nociceptors; type: cell-based; conditions: for rheobase after protease: trypsin 50 nM 10 min, NE 390 nM 30 min, CS 500 nM 60 min, thrombin 50 nM 20 min, washed; for basal excitability of DRG neurons / initial hyperexcitability (0 min) caused by trypsin, NE or CS / persistent effects (30 min) of NE or CS on rheobase / persistent effects (30 min) of trypsin on rheobase: Dy4 30 μM, PS2 15 μM
# [2] = test system: mice; experiment: Somatic mechanical nociception, von Frey filaments after intraplantar injection; type: in vivo, mouse; conditions: for mechanical allodynia after intraplantar protease: WT mice, 10 μl trypsin (80 nM), NE (3.9 μM) or CS (5 μM), within 30 min, maintained for 180 min; for NE- and CS-induced allodynia / trypsin-induced mechanical allodynia: inhibitor 50 μM, 10 μl intraplantar; for NE- and CS-induced allodynia: 30 min before NE (1.2 μM) or CS (2.5 μM); for trypsin-induced mechanical allodynia: 30 min before trypsin (10 nM), at 1 and 2 h
# Method: After 30 min, trypsin (10 nM), NE (1.2 μM), or CS (2.5 μM) (10 μl) was injected into the same paw.
# Mice were acclimatized to the experimental apparatus, room and investigator for 1-2 h on 2 successive days before studies. Investigators were blinded to the test agents. Mice were sedated (5% isoflurane) for intraplantar injections. Dy4a, Dy4 inact, PS2, PS2 inact (all 50 μM) or vehicle (0.2% DMSO in 0.9% NaCl) (10 μl) was injected into the left hindpaw. After 30 min, trypsin (10 or 80 nM), CS (2.5 or 5 μM) or NE (1.2 or 3.9 μM) (all 10 μl) was injected into the same hindpaw. Mechanical nociceptive responses were evaluated by examining paw withdrawal to stimulation of the plantar surface of the hind-paw with calibrated von Frey filaments. von Frey scores were measured in triplicate to establish a baseline for each animal on the day before experiments, and were then measured for up to 4 h after protease administration. To assess edema, paw thickness was measured at the site of injection between the plantar and the dorsal surfaces of the paw using digital calipers. For evaluation of neutrophil infiltration, paws were collected at 4 h after intraplantar injection of trypsin (10 μl, 80 nM) or vehicle, fixed in 10% neutral buffered formalin for 48-72 h, bisected, and fixed in formalin for an additional 12 h. Tissue was decalcified in 10% 0.5 M EDTA for 6 days, washed in water, transferred to 70% ethanol for 24 h, and embedded in paraffin. Sections (5 μm) were incubated with neutrophil antibody Ly6G/6C clone NIMP-R14 (Abcam #ab2557, Lot #GR135037-1, AB_303154, 1:800, room temperature, 12 h). Sections were processed for chromogenic immunohistochemistry on a Ventana Medical Systems Discovery XT platform with online deparaffinization using Ventana's reagents. Ly6G/Ly6c was enzymatically treated with protease-3 (Ventana Medical Systems) for 8 min. Ly6G/Ly6c was detected with goat anti-rat horseradish peroxidase conjugated multimer incubated for 16 min.
# [3] = target: T1, PAR2-RLuc8 (Homo sapiens, UniProt P55085); experiment: BRET assays of PAR2 endocytosis in HEK293 cells; type: cell-based; conditions: for EC50: HEK293 cells
# T1 construct: expressed in transfected cells; host or cells: HEK293, transient transfection with PEI
# T1 sequence (P55085 26-397): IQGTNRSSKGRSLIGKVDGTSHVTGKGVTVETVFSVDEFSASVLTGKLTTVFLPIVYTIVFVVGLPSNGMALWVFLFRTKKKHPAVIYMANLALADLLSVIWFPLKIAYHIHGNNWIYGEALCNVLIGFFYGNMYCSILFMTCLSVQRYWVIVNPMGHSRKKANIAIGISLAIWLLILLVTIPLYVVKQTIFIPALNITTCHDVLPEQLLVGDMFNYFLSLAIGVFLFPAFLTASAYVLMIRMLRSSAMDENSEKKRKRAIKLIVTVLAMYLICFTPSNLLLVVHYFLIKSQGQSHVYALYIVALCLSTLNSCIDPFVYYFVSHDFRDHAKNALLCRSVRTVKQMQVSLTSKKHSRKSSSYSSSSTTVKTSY
# [4] = test system: cytosolic and nuclear ERK; experiment: FRET assays of cytosolic and nuclear ERK in HEK293 cells; type: cell-based; conditions: for trypsin activation of cytosolic and nuclear ERK: I-343 10 μM, SCH530348 100 nM, PS2 30 μM
# Method: Trypsin-induced ERK signaling mediated by endosomal PAR2 signaling was investigated in HEK293 cells expressing Flag-PAR2-HA11 and FRET biosensors for cytosolic and nuclear ERK (CytoEKAR, NucEKAR), plasma membrane and cytosolic PKC (pmCKAR, CytoCKAR), and plasma membrane and cytosolic cAMP (pmEpac, CytoEpac). […] I-343 (10 μM) but not SCH530348 (100 nM) inhibited trypsin activation of cytosolic and nuclear ERK (FIG. 5G). PS2 and DynK44E inhibited trypsin-stimulated activation of cytosolic and nuclear ERK when compared to PS2 inact and DynWT controls (FIG. 5H, 5I, 17G-J). AG1478 (1 μM), an inhibitor of EGF receptor tyrosine kinase (Levitzki, A. & Gazit, A. Science 1995, 267(5205): 1782-1788), UBO-QIC (100 nM), which inhibits Gαq and certain Gβγ signals ([…]), and G66983 (1 μM), which inhibits all isoforms of PKC (Gschwendt, M, et al., FEBS Lett 1996, 392(2): 77-80), suppressed trypsin-stimulated activation of cytosolic ERK (FIGS. 5J and 17K).
# HEK293 cells were cultured in DMEM supplemented with 10% (v/v) FBS (5% CO2, 37° C.). When necessary serum restriction was achieved by replacing culture medium with DMEM containing 0.5% FBS overnight. Cells were transiently transfected using polyethylenimine (PEI) (1:6 DNA:PEI).
# HEK293 cells were transiently transfected in 10 cm dishes (˜50% confluency) with Flag-PAR2-HA (2.5 μg) and FRET biosensors CytoEKAR or NucEKAR (2.5 μg) (Jensen, D. D. et al., Sci Transl Med. 2017, 9(392), eaal3447; Thomsen, A. R. B., et al., Cell 2016, 166(4): 907-919). In experiments examining the role of dynamin, cells were transfected with FLAG-PAR2-HA (1.25 μg), FRET biosensor (1.25 μg) and either DynWT-HA, DynK44E-HA or pcDNA3.1 (2.5 μg). At 24 h after transfection, cells were seeded on ViewPlate-96 well plates (PerkinElmer). FRET was assessed 72 h post-transfection, following overnight serum restriction. Cells were equilibrated in HBSS-HEPES (30 min, 37° C.). FRET was measured using a PHERAstar FSX Microplate Reader (BMG LabTech). For CFP/YFP emission ratio analysis, cells were sequentially excited using a CFP filter (425/10 nm) with emission measured using YFP (550/50 nm) and CFP (490/20 nm) filters. FRET was measured before and after stimulation with trypsin (10 nM), NE (100 nM), CS (100 nM), phorbol 12,13-dibutyrate, PDBu (positive control, 1 μM), or vehicle. FRET ratios (donor/acceptor intensity for EKAR, or acceptor/donor intensity for CKAR and Epac) were calculated and corrected to baseline and vehicle treatments to determine ligand-induced FRET (ΔFRET). Treatment effects were determined by comparison of area under the curve values. Signalling inhibitors were dissolved in HBSS-HEPES. PS2 and PS2 inact were dissolved in HBSS-HEPES+1% DMSO. Cells were incubated with UBO-QIC (100 nM), AG1478 (1 μM), G66983 (1 μM), PS2 or PS2 inact (30 μM) or vehicle (30 min preincubation, inclusion throughout).
Compound,rheobase after protease [1],mechanical allodynia after intraplantar protease [2],basal excitability of DRG neurons [1],"initial hyperexcitability (0 min) caused by trypsin, NE or CS [1]",persistent effects (30 min) of NE or CS on rheobase [1],persistent effects (30 min) of trypsin on rheobase [1],NE- and CS-induced allodynia [2],trypsin-induced mechanical allodynia [2],trypsin activation of cytosolic and nuclear ERK [4],other results
NE: protease (elastase) activating PAR2 by biased mechanisms,decreased rheobase at 0 and 30 min,induced mechanical allodynia,–,–,–,–,–,–,–,PAR2-RLuc8/RIT-Venus or Rab5a-Venus BRET ([3]; 100 nM): Neither NE nor CS (100 nM) affected
O=C1NC(=NS(=O)(=O)c2cccc3ccccc23)S/C1=C\c1ccc(Br)cc1 [PS2],–,–,did not affect,did not affect,not,abolished,unchanged or minimally affected,inhibited,inhibited,trypsin-induced decrease in PAR2-RLuc8/RIT-Venus BRET and increase in PAR2-RLuc8/Rab5a-Venus BRET ([3]; PS2 or PS2 inact): suppressed
trypsin,decreased rheobase at 0 and 30 min,induced mechanical allodynia,–,–,–,–,–,–,–,"EC50 ([3]; read-out: EC50, decrease in PAR2-RLuc8/RIT-Venus BRET): 2.9 nM; EC50 ([3]; read-out: EC50, increase in PAR2-RLuc8/Rab5a-Venus BRET): 2.7 nM; PAR2-RLuc8/Rab5a-Venus BRET after 60 min ([3]; compared to HC supernatant, trypsin 10 nM positive control): increased; EC50 ([4]; HEK293 cells, read-out: EC50, activation of ERK in the cytosol and nucleus): 5 nM; activation of ERK in the cytosol and nucleus ([4]; trypsin 10 nM, NE or CS 100 nM): stimulated a rapid and persistent activation"
"Cc1nc(C(=O)N2CCN(C(=O)c3cn4nc(-c5ccc(F)cc5)cc(C(C)(C)C)c4n3)C(C)(C)C2)n[nH]1 [Compound I-343, (8-(tert-butyl)-6-(4-fluorophenyl)imidazo[1,2-b]pyridazin-2-yl)(2,2-dimethyl-4-(5-methyl-1H-1,2,4-triazole-3-carbonyl)piperazin-1-yl)methanone]",–,–,–,–,–,–,–,–,inhibited,"decrease in rheobase 0 min after NE [1]: prevented; decrease in rheobase 0 min after trypsin ([1]; 100 nM, 300 nM): prevented; decrease in rheobase 30 min after CS ([1]; 10 μM): prevented; decrease in rheobase 30 min after NE ([1]; 10 μM): not; decrease in rheobase 30 min after trypsin ([1]; 10 μM): prevented"
O=C(N/N=C/c1cc(O)c(O)cc1O)c1cc2ccccc2cc1O [Dy4],–,–,did not affect,did not affect,not,abolished,unchanged or minimally affected,inhibited,–,–
